The subject of assay [1] is ACHN cells. In words: High content imaging screen of 116 small molecule inhibitors for p62 and pS6. The following applies: HCI screen, 72 hr. It is filed as cell-based, human. An excerpt:
We used a metastatic human RCC cell line, ACHN. Small molecule inhibitors have been extensively used in RCC over the last decade. […] Importantly, p62 is an autophagy substrate that is degraded along with its cargo, and so is expected to decrease with induction of autophagy. Therefore, we monitored p62 steady-state levels as an initial screen of autophagy flux. Next, we combined the measurement of the p62 with a measurement of mTORC1 activity an independent readout to evaluate autophagy. mTORC1 plays the central role in the anabolic process by increasing protein content through ribosomal biogenesis and elongation of protein translation. Specifically, mTORC1 induces mRNA translation by inducing the activation of p70S6 kinase and the subsequent phosphorylation of the S6 ribosomal protein. To ensure increased cellular biomass, mTORC1 downregulates autophagy. We chose the phosphorylation status of the downstream target of mTORC1 signaling, ribosomal S6 (hereafter S6) as a readout for mTORC1 activity.
To provide a straightforward method for detecting the induction of autophagy, we monitored ACHN cells for small molecule inhibitors which decreased the antibody labelled levels of p62 protein and pS6 phosphorylation (see methods below for detailed experiment procedure). To that end, automated high content imaging (HCl) microscopy was used to detect induction of autophagy as documented by the […] by p62 protein expression and mTORC1 inhibition by the decrease in S6 phosphorylation. The HCl assay was optimized for 384-well plate screening. Drug screening plates were designed and created as previously described.
A 7-point dilution series of 116 small molecule inhibitors covering a 1000× concentration range were plated into three, 384-well plates using the EP Motion automated dispensing system. Control wells with equal volumes of DMSO were included as negative controls. ACHN cells were grown, trypsinized counted, and plated directly into warm drug plates using Multidrop combi dispenser. Plates were incubated for 72 hr and subsequently imaged on the Olympus ScanR Platform at 10× magnification performing 4 images per well in 384 well plates. Single-cell nuclear and cytoplasmic fluorescent intensities were calculated using the Olympus ScanR Analysis Software: the DAPI-positive region of each cell was used as a boundary to quantitate nuclei counts for analysis of cell growth and integrated nuclear DNA staining intensity was used for cell cycle analysis. A 10-pixel extension of the nuclear region (and not including the nuclear region) was used to quantitate cytoplasmic signal of immunofluorescent staining of p62 protein and phosphorylation of S6. Mean signal intensity of each marker in all cells per well was used as the metric for cytoplasmic marker expression (average intensity of pS6 and p62). Unsupervised hierarchical clustering was used to identify compounds that produced similar pS6 and p62 dose response phenotypes after treatment.

Assay [2] concerns ACHN cells. In words: Autophagy flux validation (immunofluorescence, immunoblot, mCherry-EGFP-LC3 reporter, MDC, TEM). Type of assay: cell-based, human. An excerpt: Next, we stably expressed a mChery-EGFP-LC3 reported in ACHN cells. This reporter for autophagic flux takes advantage of the fact that EGFP fluorescence is quenched in the acidic environment of the autolysosome relative to mCherry. […] This method to measure flux has been extensively validated and accurately quantitates autophagic flux induction by multiple stimuli and chemical and genetic inhibition of autophagy. […] LC3-I is normally converted into LC3-II (LC3-I covalently bound to phosphatidylethanolamine) during autophagosome formation but is converted back to LC3-I by protease cleavage during autophagosome maturation.
Cells were plated in 6 well dishes and treated the following day with the indicated agents. Treatments were for 24 hours, after which cells were washed with ice cold PBS and lysed with RIPA buffer (Sigma). Phosphatase inhibitor cocktail set II and protease inhibitor cocktail set III (EMD Millipore) were added at the time of lysis. Lysates were centrifuged at 15,000 g×10 min at 4 degrees C. Protein concentrations were calculated based on a BCA assay (Thermo Scientific) generated standard curve. Proteins were resolved using the NuPAGE Novex Mini Gel system on 4% to 12% Bis-Tris Gels (Invitrogen). For western blotting, equal amounts of cell lysates (15-20 μg of protein) were resolved with SDSPAGE, and transferred to membranes. The membrane was probed with primary antibodies, washed, and then incubated with corresponding fluorescent secondary antibodies and washed. The fluorescent signal was captured using LI-COR (Lincoln, Nebr.) Odyssey Imaging System, and fluorescent intensity was quantified using the Odyssey software where indicated. The following antibodies were used for Western blots: p-S6 (S240/244), S6, LC3B, p-Akt(S473), p-Akt(T308), Akt, cleaved caspase3 (Cell Signaling Technologies). p-Stat3 (Y705), Stat3 and β-actin (AC15) (Abcam). Ki67 (Dako) and cleaved caspase3 (Cell Signaling Technologies) were used for immunohistochemistry. […] BX795 and GDC0941 were purchased from Sigma.
Slides were plated on coverslips and allowed to adhere for 24 hours. After adherence, cells were treated with drug for 24 hours. After treatment, drug was removed and cells were washed once in PBS. Cells were labeled with a […] concentration of autofluorescent marker monodansylcadaverine (MDC) in PBS for 10 min at 37 C. Cells were fixed in 4% formaldehyde for 15 min at room temperature. Cells were washed in PBS 2×5 min, and mounted on slides using Dako mounting media with dapi. Coverslips were sealed with clear nail polish and imaged with 3DHistech MIDI Scanner as described above.

In assay [3] the test system is ACHN cells. In words: Transcriptomic analysis with gene set enrichment (GSEA). It is filed as cell-based, human.
Assay [4] relates to human RCC cells (ACHN and SN12C). In words: Phosphoproteomics screen and kinase substrate enrichment analysis. It is filed as cell-based. The following applies: phosphoproteome. On the procedure:
Enriched phospho-peptides were digested with trypsin and analyzed by mass spectroscopy following the published “Cell Signaling Technology” protocol.
MS raw files were analyzed via MaxQuant version 1.5.3.30 [73] and MS/MS fragmentation spectra were searched using Andromeda against human canonical and isoform sequences in Swiss-Prot (downloaded in September 2016 from http://uniprot.org). Quantitative phosphopeptide data were log10 transformed and missing data were imputed before applying quantile normalization as previously described. Hierarchical clustering was performed on the Cluster 3.0 program, using distance that is based on the Pearson correlation and applying pairwise average linkage analysis. Java Treeview was used to visualize clustering results.
Kinase substrate enrichment analysis (KSEA) was performed as previously described. […] Permutation analysis was conducted to calculate statistical significance. The normalized enrichment score was calculated by dividing the enrichment score by the average of the absolute values of all enrichment scores from the permutation analysis.

Assay [5] relates to Atg5−/− murine embryonic fibroblasts. In words: Lipid droplet number in Atg5−/− MEFs. It is filed as cell-based, mouse. The following applies: ATG5 deficient, 24 hr. On the procedure:
Cells were grown on coverslips then treated with drug for 24 hours. Cells were fixed in 4% paraformaldehyde for 15 min, rinsed with PBS. Cells were washed with a 1% saponin solution for 15 min at room temperature then washed several times in PBS to remove detergent. Cells were then incubated in Bodipy (ThermoFisher #D3922) at a final concentration of 1 uM for 10 min. Bodipy was removed and slides were rinsed with PBS then air dried and mounted on slides using Dako mounting media with Dapi.

Setting [6] is: transmission electron microscopy.

For `N#CCNC(=O)c1ccc(-c2ccnc(Nc3ccc(N4CCOCC4)cc3)n2)cc1` [CYT387], in the assay on ACHN cells [1], the S6 phosphorylation entry was “potently inhibited S6 phosphorylation” and the “induction of autophagy / autophagic flux” value is recorded as “potent inducers of autophagic flux”. The “p62 protein expression and phosphorylated-S6 levels by immunofluorescence staining” value in the assay on ACHN cells [2] (cells on coverslips) is “decreased p62 protein expression and phosphorylated-S6 levels”. Further, the “phosphorylation of Y705-STAT3” value in the assay on ACHN cells [2] (immunoblot) was “decrease in phosphorylation of Y705-STAT3”. The LC3-II levels entry in the assay on ACHN cells [2] (immunoblot, more pronounced with E64D/pepstatin) is reported as “increased LC3-II levels”. Moreover, the MDC autoflorescence result in the assay on ACHN cells [2] (monodansylcadaverine staining) was “increased MDC autoflorescence”. Further, the “time to reduction in LC3B lipidation after removal of drug” value with ACHN cells [2] (reversal of autophagy) was not above 24 h. Further, in the assay with ACHN cells [2] (stably expressed reporter), the “mChery-EGFP-LC3 reporter of autophagic flux” value is “decreased expression of green-yellow cells and increased expression of red cells”. Further, in the assay with ACHN cells [2] (setting [6]), the “number of double-membraned autophagosomes” value was “increased the number of double-membraned autophagosomes”; the “number of mitochondria and lipid droplets” value was “increased number of mitochondria and lipid droplets”. Moreover, the “expression of genes involved in glycolysis such as PFKB3 and HK2” value in the assay on ACHN cells [3] is “downregulated genes involved in glycolysis”. Besides, in assay [4], the RICTOR phosphorylation result is given as “hypophosphorylated at T^1135”; the “STAT3 Y^705 phosphorylation” value is given as “trended towards hypophosphorylation of STAT3 Y^705”; the “TSC2 phosphorylation (T^1462, S^1798)” value is reported as “hypophosphorylated at two inhibitory phosphoresidues”; the “insulin receptor (INSR) Y^1189 phosphorylation” value is reported as “hyperphosphorylation”. In addition, the “ribosomal protein S6 (RPS6) phosphorylation” value in assay [4] is recorded as “trended towards hypophosphorylation”. The lipid droplets result in assay [5] is given as “no increase in lipid droplets”.

The record behind these values is patent publication US20190142835A1, “INHIBITION OF AUTOPHAGY USING PHOSPHOLIPASE A2 INHIBITORS” (OREGON HEALTH & SCIENCE UNIVERSITY, priority 2017, published 2019).
